The structures appear in SMILES notation. pIC50: −log10 of the molar value.

The first data set deals with SARS-CoV-2. Put plainly: microbe, parasite or virus in culture. In kind it is cell-based. Particulars: Severe acute respiratory syndrome coronavirus 2, Vero, 24 h.
One may read the pIC50 as the IC50 on a negative log10 scale, so that one unit is a factor of ten. As to `CCC(CC)COC(=O)[C@H](C)N[P@](=O)(OC[C@H]1O[C@@](C#N)(c2ccc3c(N)ncnn23)[C@H](O)[C@@H]1O)Oc1ccccc1` [Remdesivir, remdesivir, reference compound], the pIC50 was 5.10.
On the same count and under the same terms, as for `Cc1cccc(C)c1OCC(=O)N[C@@H](Cc1ccccc1)[C@@H](O)C[C@H](Cc1ccccc1)NC(=O)[C@H](C(C)C)N1CCCNC1=O` [Lopinavir, lopinavir, reference compound], the figure is 4.68; as for `CCN(CC)CCCC(C)Nc1ccnc2cc(Cl)ccc12` (stereo not drawn) [Chloroquine, chloroquine, reference compound], 5.01.

Staying with this data set, now noted: Severe acute respiratory syndrome coronavirus 2; Vero cells, SARS-CoV-2 MOI 0.0125, 24 hours, derived through the DRC, duplicate; read-out: IC50.
In the case of `CNc1nc(-c2cccs2)nc2c1nc(C#Cc1ccccc1)n2[C@@H]1OCC(O)C1O` (stereo partly drawn) [Chemical Formula 2], the pIC50 was 5.14.
Turning to `Nc1ncnc2c1ncn2[C@H]1C(O)C(O)[C@@H](CO)[C@H]1F` (stereo partly drawn) [Chemical Formula 1-1], the pIC50 is 5.13.
On the same count and under the same terms, as for `Nc1ncnc2c1ncn2[C@H]1C(O)C(O)[C@@H](CO)C1(F)F` (stereo partly drawn) [Chemical Formula 1-2], the figure is 5.51.

The same data set, now with this note: Severe acute respiratory syndrome coronavirus 2; screening criterion for Positives; Vero cells; 10 μM (FIG. 8); read-out: ability to inhibit infection.
On to `CNc1nc(-c2cccs2)nc2c1nc(C#Cc1ccccc1)n2[C@@H]1OCC(O)C1O` (stereo partly drawn) [Chemical Formula 2], for which the inhibition at 10 µM is not below 70%.
Same read-out and setting: as for `Nc1ncnc2c1ncn2[C@H]1C(O)C(O)[C@@H](CO)[C@H]1F` (stereo partly drawn) [Chemical Formula 1-1], the figure is not below 70%.
Take `Nc1ncnc2c1ncn2[C@H]1C(O)C(O)[C@@H](CO)C1(F)F` (stereo partly drawn) [Chemical Formula 1-2]: the inhibition at 10 µM was not below 70%.

Test system in the next data set: not listed separately
The data set can be described thus: in vitro. Particulars: African green monkey.
As for `CCC(CC)COC(=O)[C@H](C)N[P@](=O)(OC[C@H]1O[C@@](C#N)(c2ccc3c(N)ncnn23)[C@H](O)[C@@H]1O)Oc1ccccc1` [Remdesivir, remdesivir, reference compound], the CC50 is more than 50 µM.
On the same count and under the same terms, as for `CNc1nc(-c2cccs2)nc2c1nc(C#Cc1ccccc1)n2[C@@H]1OCC(O)C1O` (stereo partly drawn) [Chemical Formula 2], the figure is more than 50 µM; as for `Nc1ncnc2c1ncn2[C@H]1C(O)C(O)[C@@H](CO)[C@H]1F` (stereo partly drawn) [Chemical Formula 1-1], more than 50 µM.
Same read-out and setting: with `Nc1ncnc2c1ncn2[C@H]1C(O)C(O)[C@@H](CO)C1(F)F` (stereo partly drawn) [Chemical Formula 1-2] the figure was more than 50 µM.
On the same count and under the same terms, as for `Cc1cccc(C)c1OCC(=O)N[C@@H](Cc1ccccc1)[C@@H](O)C[C@H](Cc1ccccc1)NC(=O)[C@H](C(C)C)N1CCCNC1=O` [Lopinavir, lopinavir, reference compound], the figure is more than 50 µM; as for `CCN(CC)CCCC(C)Nc1ccnc2cc(Cl)ccc12` (stereo not drawn) [Chloroquine, chloroquine, reference compound], more than 150 µM.

The values above are taken from patent US20240148769A1, “PHARMACEUTICAL COMPOSITION FOR PREVENTING OR TREATING CORONAVIRUS DISEASE 19, CONTAINING CARBOCYCLIC NUCLEOSIDE DERIVATIVE” (FUTURE MEDICINE CO., LTD., priority 2021, published 2024).
